“Also recorded” adds a separate entry of the source.
Assays:
[1] = organ accumulation of particles in 4T1 tumor-bearing mouse (IVIS); assay type: in vivo, BALB/c mouse; conditions: intravenous, lipid 800 nmol, 24 hr after administration, DiR fluorescence
Protocol: As cationic lipid, B-2 and B-2-5 were used. As conventional lipid, DODAP and EPC were used. The preparation methods of the O/W type emulsion and particle suspensions (DODAP, EPC) followed the methods described in Example 1 and Comparative Example 1. To visualize pharmacokinetics of the oil droplets constituting the O/W type emulsion or particle suspension (DODAP, EPC), fluorescent dye DiR was added by 0.2 mol % of the lipid. The particle concentration was adjusted to 4 mM as a lipid concentration.
As a tumor-bearing mouse, 4T1 cell (mouse breast cancer) was used. 1×10^6 4T1 cells were subcutaneously transplanted to the right flank of BALB/c mouse (♀, 4-week-old). At 7 days from the transplantation, 200 μL (lipid 800 nmol) of the O/W type emulsion or particle suspension (DODAP, EPC) containing fluorescence-modified particles was intravenously administered. At 24 hr after administration, […] was performed, and the spleen, liver and tumor were collected and image was obtained by IVIS. The average fluorescence intensity was calculated using Living Image Software.
As a cationic lipid, B-2 was used. An O/W type emulsion was prepared according to Example 3. In this preparation, 4-Methylumbelliferon (10 mol %) was used as a model drug and DMG-PEG2000 (10 mol %) and DSG-PEG2000 (2.5 mol %) were used as PEG lipids, and a 4.0 mM (based on lipid concentration) emulsion was prepared. To visualize pharmacokinetics of the oil droplets constituting the O/W type emulsion or particle suspension (DODAP, EPC), fluorescent dye DiR was added by 0.2 mol % of the lipid. As the salt (NaCl) concentration during preparation of particles, 30 mM, 150 mM, 750 mM were selected and taken as “Small”, “Medium”, “Large”, respectively. The particle concentration was adjusted to 4 mM as a lipid concentration.
The organ distribution in a tumor-bearing mouse was evaluated in the same manner as in Experimental Example 1. As a result, accumulation in the spleen, liver decreased as the particle size became smaller.

[2] = particle size distribution by dynamic light scattering (Zetasizer Nano ZS); assay type: physicochemical
Protocol: The particle size distribution of the prepared emulsion was measured by dynamic light scattering using Zetasizer Nano ZS. The measurement conditions were 1 mM emulsion (40 μL) at 25° C. As a result, in all compositions, the volume median diameter was not more than 100 nm and, when a linear head was used (i.e., the formula (I) wherein X^a and X^b are each X^1), the particle size was not more than 50 nm. The drug recovery rate was not less than 85% (FIG. 1, Table 2).
EPC and Cholesterol were mixed to achieve 1000 nmol and a PEG lipid was added. Chloroform in an amount equal to that of the lipid ethanol solution was added and the mixture was dried under a nitrogen blow. PBS (1 mL) was added to the lipid membrane after drying and the mixture was stood for 10 min and sonicated by a bath-type sonicator for 3 min to give a particle suspension. The particle size distribution of the prepared particles was measured by dynamic light scattering in the same manner as in Example 1.
The particle size distribution of the produced emulsion solution was measured by dynamic light scattering similarly to Example 1. As a result, when DOPC was used, the volume median diameter was near 40 nm irrespective of pH.
An ethanol solution containing 500 nmol as a total of cationic B-2, DOPE, and Cholesterol was prepared, and a PEG lipid was added in the above-mentioned amount. Ethanol was added to make the total amount 200 μL, and the mixture was stood at ice temperature for 15 min. A similarly ice-cooled malic acid buffer (20 mM, pH 3.0, 0-1000 mM NaCl) (200 μL) was mixed within 3 sec under vortex. PBS (NISSUI) (3600 μL) was immediately added thereto. The mixture was subjected to ultrafiltration using Amicon Ultra (Millipore). The centrifugation conditions were 1000 G, 25° C. An operation including addition of 3200 μL of PBS after centrifugation for 10 min was repeated twice and the sample was concentrated to about 500 μL. The concentrate was diluted with PBS to a mass of 1000 mg to give a 0.5 mM (lipid concentration) emulsion. The particle size distribution of the produced emulsion solution was measured by dynamic light scattering similarly to Example 1.
The volume median diameter and the surface potential were measured using the dynamic light scattering (Zetasizer Nano; Malvern) in the same manner as in Example 1.
The average particle size of the produced particles was measured in the same manner as in Example 1 and the results are shown in Table 7.

[3] = DexPal-carrying rate by high performance liquid chromatography; assay type: physicochemical; conditions: DexPal-carrying LNP
Protocol: 1 mM DexPal-carrying LNP (50 μL) was mixed with phosphate buffer (pH 7.4) (50 μL), and 50 μL thereof was mixed with MeOH (50 μL). 0.1% Trifluoroacetic acid/acetonitrile (400 μL) was added, and DexPal was detected by high performance liquid chromatography (column: InertSustain C18, 5 μm, 4.6 mm×250 mm (GL Sciences Inc.), mobile phase: MeOH:0.1% trifluoroacetic acid/acetonitrile=70:30, flow rate: 1 mL/min, detector: 240 nm, injection volume: 200 μL). As the analytical curve of Dex-Pal, 0.5 mM, 0.25 mM, 0.125 mM, 0.0625 mM, DexPalethanol solution (50 μL) was mixed with MeOH (50 μL), and 50 μL thereof was mixed with phosphate buffer (pH 7.4) (50 μL). 0.1% Trifluoroacetic acid/acetonitrile (400 μL) was added, and DexPal was detected by a method similar to that for DexPal-carrying LNP. The peak area and concentration were plotted, and the DexPal concentration and carrying rate in the DexPal-carrying LNP were calculated.

[4] = retentivity in blood test, 4 MU-Pal versus 4 MU-CHEMS; assay type: in vivo; conditions: B-2:DOPC:Chol emulsion, tail vein, ICR mouse; comparison with 4 MU-Pal
Protocol: To a lipid mixture of B-2:DOPC:Chol=3:4:3 were added DSG-PEG2000 (9 mol %) and 30 mol % 4 MU-Pal, and 1 mol % fluorescent dye DiD was added to give an emulsion by a method similar to that in Example 1.
To a lipid mixture of B-2:DOPC:Chol:4 MU-CHEMS=3:4:1.5:1.5 was added DSG-PEG2000 (15 mol %), fluorescent dye DiD (1 mol %) was further added, and an emulsion was prepared by a method similar to that in Example 1.
The concentration of the particle suspension was set to 4 mM as a lipid concentration (B-2+DOPC+Chol). The suspension (250 μL) was administered to ICR mouse J 4-week-old from the tail vein. Blood (25 μL) was collected at each time point and mixed with pH 10.4 borate buffer (275 μL), ethanol (150 μL), 10% SDS (50 μL). 4 MU-Pal or 4 MU-CHEMS was hydrolyzed by incubation at 60° C. for 30 min. The fluorescence of the resulting 4-methylumbelliferone, and DiD modified by particles was each measured by a plate reader and the residual amount in the blood was examined from the analytical curve.

[5] = drug release and reduction responsibility test (dialysis, with or without 10 mM glutathione); assay type: physicochemical
Protocol: Using B-2, B-2-5, O-C3M, B-2-3, TS-P4C2 or L-PZ4C2 as a cationic lipid, an O/W type emulsion having a composition of cationic lipid:DOPC:Cholesterol=3:4:3 (molar ratio) was prepared. In this preparation, DSG-PEG2000 (9 mol %) was used as a PEG lipid. As a drug model molecule, 4-Methylumbelliferon Palmitate (30 mol %) was used and fluorescent probe DiD (1 mol %) was used for calibration by particles concentration.
An ethanol solution containing 1000 nmol as a total of cationic lipid, DOPE, and Cholesterol was prepared, and PEG lipid, drug model molecule and fluorescent probe were added in the above-mentioned amounts. Ethanol was added to make the total amount 400 μL, and the mixture was stood at 37° C. for 15 min. A similarly heated malic acid buffer (20 mM, pH 3.0, 30 mM NaCl) (400 μL) was mixed within 3 sec under vortex. PBS (NISSUI) (3200 μL) was immediately added thereto. The mixture was subjected to ultrafiltration using Amicon Ultra (Millipore) The centrifugation conditions were 1000 g, 25° C. […]
400 μL of the prepared emulsion was placed in a dialysis membrane (Spectrum Lab) having a molecular weight cutoff of 1000 and dialyzed against 40 mL of PBS at 37° C. […] After penetration and stirring at 60° C. for 30 min, the amounts of 4MU and DiD in the solution were quantified by fluorescence measurement (4MU: Ex385, Em450 DiD: Ex645, Em665). […]

[6] = O/W emulsion cationic lipid:DOPE:Cholesterol=3:4:3, 4-Methylumbelliferon 10 mol %, DMG-PEG2000 10 mol %, DSG-PEG2000 2.5 mol %
[7] = O/W emulsion cationic lipid:DOPE:Cholesterol=3:4:3, 4-Methylumbelliferon 10 mol %, DMG-PEG2000 10 mol %, DSG-PEG2000 2.5 mol %, 1 mM, 25° C.
[8] = DexPal-carrying particles (lipid, DOPC, Chol, DMG-PEG2000, DSG-PEG2000, DexPal)

Cc1c(C)c2c(c(C)c1OC(=O)CCC(=O)OCCCN(C)CCSSCCN(C)CCCOC(=O)CCC(=O)Oc1c(C)c(C)c3c(c1C)CCC(C)(CCCC(C)CCCC(C)CCCC(C)C)O3)CCC(C)(CCCC(C)CCCC(C)CCCC(C)C)O2 (stereo not drawn) [B-2-5]
accumulation in the liver [1]: superior in accumulation in the liver; also recorded: found | PdI [2, 6]: 0.164 | volume median diameter [2, 7]: 41.2 nm

CCCCCCCCCCCCCC(=O)OCCCN(C)CCSSCCN(C)CCCOC(=O)CCCCCCCCCCCCC [B-2]
transfer into tumor [1]: transfer well into tumor | volume median diameter ([2]; B-2:DOPE:Cholesterol=3:4:3, 15 mol % DMG-PEG2000, NaCl concentration of 60 mM or below at preparation): 30-50 nm | volume median diameter ([2]; B-2:DOPE:Cholesterol=3:4:3, 15 mol % DMG-PEG2000, salt concentration of 500 mM or below at preparation): ≤ 100 nm | PdI ([2]; DexPal-carrying particles): 0.15 ± 0.01 | volume median diameter [2, 8]: 41.4 ± 0.7 nm·days | PdI [2, 6]: 0.465 | volume median diameter [2, 7]: 37.6 nm | carrying rate [3]: 90.6 ± 5.2%

Cc1cc(=O)oc2cc(OC(=O)CCC(=O)OC3CCC4(C)C(=CCC5C4CCC4(C)C(C(C)CCCC(C)C)CCC54)C3)ccc12 (stereo not drawn) [4 MU-CHEMS, 4-methylumbelliferone cholesterol hemisuccinate]
retentivity in blood [4]: stayed longer in the blood than 4 MU-Pal

CCCCCCCC/C=C\CCCCCCCC(=O)OCC(CN(C)C)OC(=O)CCCCCCC/C=C\CCCCCCCC (stereo not drawn) [DODAP]
transfer into tumor [1]: transfer well into tumor | release of drug model substance ([5]; conventional lipid particle suspension, 24 hr, under any conditions (reduction or nonreduction)): hardly released | responsiveness under reduction ([5]; conventional lipid:DOPC:Cholesterol=3:4:3 particle suspension, 4-Methylumbelliferon Palmitate 30 mol %): not found | PdI ([2]; DexPal-carrying particles): 0.15 ± 0.01 | volume median diameter [2, 8]: 39.1 ± 2.2 nm·days | PdI ([2]; particle suspension of conventional lipid (DODAP:DOPE:Cholesterol=3:4:3 or EPC:Cholesterol=3:2)): 0.418 | volume median diameter ([2]; particle suspension of conventional lipid (DODAP:DOPE:Cholesterol=3:4:3 or EPC:Cholesterol=3:2), 4-Methylumbelliferon 10 mol %): 34.8 nm | carrying rate [3]: 89.6 ± 2.9%

CCCCCCCC/C=C\CCCCCCCC(=O)OC[C@H](COP(=O)([O-])OCC[N+](C)(C)C)OC(=O)CCCCCCC/C=C\CCCCCCCC [DOPC, dioleoylphosphatidylcholine]
volume median diameter ([2]; B-2:helper lipid:Cholesterol=3:4:3, 15 mol % DMG-PEG2000, malic acid buffer pH 3.0): 41.5 nm | volume median diameter ([2]; B-2:helper lipid:Cholesterol=3:4:3, 15 mol % DMG-PEG2000, malic acid buffer pH 4.0): 40.5 nm | volume median diameter ([2]; B-2:helper lipid:Cholesterol=3:4:3, 15 mol % DMG-PEG2000, malic acid buffer pH 5.0): 45.6 nm | PdI ([2]; B-2:helper lipid:Cholesterol=3:4:3, 15 mol % DMG-PEG2000, pH 3.0): 0.319 | PdI ([2]; B-2:helper lipid:Cholesterol=3:4:3, 15 mol % DMG-PEG2000, pH 4.0): 0.214 | PdI ([2]; B-2:helper lipid:Cholesterol=3:4:3, 15 mol % DMG-PEG2000, pH 5.0): 0.196 | volume median diameter ([2]; B-2:helper lipid:Cholesterol=3:4:3, irrespective of pH (3.0-5.0)): about 40 nm

From patent US11395798B2, “O/W type emulsion” (NOF CORPORATION, priority 2015, dated 2022)
